Where “and” joins values, the source holds several entries; their conditions need not be identical. Equal values may be shown once.
Columns and labels:
[1] = some patients; cited from earlier work
[2] = system: dextran sodium sulfate-induced inflammatory bowel disease; test: DSS-induced inflammatory bowel disease, six-group study (Example V); assay type: in vivo, mice
Description: Then, the efficacy of the disclosed agents and method was confirmed in an additional study. […] Injections were made at day 7 post-disease induction by dextran sodium sulfate. All mice were sacrificed at day 10.

[3] = system: foxp3 expression in activated T cells; test: foxp3 expression in T cells of splenocytes activated by anti-CD3/CD28 beads with exogenous calcitriol; assay type: cell-based, mouse; conditions: 72 hours
Description: The naive mouse splenocytes can be cultured for 3 days with 1,25 Vitamin D (100 U/ml, Sigma-Aldrich) in the presence of human (h) IL-2 (50 U/ml) in complete RPMI 1640 medium (10% FBS; HyClone). The cells were harvested and stained for the FoxP3 expression with an anti-FoxP3 Ab (FJK-16s; eBioscience) and CCR9 expression.
A supraphysiological concentration of the active vitamin D metabolite, 1,25[OH]2D (calcitriol), may be necessary for calcitriol to induce foxp3 expression during T cell priming. Foxp3 is a protein that is involved in the regulatory pathway in the development and function of regulatory T cells. To determine whether a supraphysiological concentration is necessary, foxp3 expression in T cells during T cell activation in the presence of exogenous calcitriol can be examined. Splenocytes can be activated by anti-CD3/CD28 magnetic beads. In some cultures, 1,25[OH]2D can be added at a low (20 nM) or high (100 nM) concentration. Cells can be cultured for 72 hours and analyzed for foxp3 expression using flow cytometry. Flow cytometry can be performed by harvesting transduced mCYP27B1-positive DCs, washing them in PBS, resuspending them in the FACS buffer, and analyzing them for GFP expression on a flow cytometer. […] The normal range of human calcitriol serum concentration is 16˜56 pg/ml (0.038 nM 0.13 nM). […]

[4] = injection at day 7 post-DSS, sacrifice day 10

For `C=C1C(=CC=C2CCC[C@]3(C)[C@@H]2CC[C@@H]3[C@H](C)CCCC(C)(C)O)C[C@@H](O)C[C@@H]1O` [calcitriol, (1R,3S)-5-[2-[(1R,3aR,7aS)-1-[(2R)-6-hydroxy-6-methyl-heptan-2-yl]-7a-methyl-2,3,3a, 5,6,7-hexahydro-1H-inden-4-ylidene]ethylidene]-4-methylidene-cyclohexane-1,3-diol], the “serum calcitriol level tolerated without dose-limiting toxicity (hypercalcemia)” value [1] is listed as “up to 300 pg/ml and ≤ 0.72 nM”, the “increase in serum calcium” value ([2]; calcitriol 200 ng/day/mouse intraperitoneal) is listed as “more than 30%” and the “colon lesions / mucosal integrity” value [2, 4] is listed as “did improve colon mucosal integrity”. For the same compound, the hypercalcemia [2, 4] was “severe hypercalcemia”, the body weight loss ([2]; injection at day 7 post-DSS, sacrifice day 10, calcitriol 200 ng/day/mouse intraperitoneal) was “failed to prevent body weight loss” and the “foxp3 expression in activated T cells” value ([3]; 20 nM) was “slightly up regulated”. The “foxp3 expression in activated T cells” value ([3]; 100 nM) was “significantly augment”.

— patent US12275961B2, “Method for utilizing engineered dendritic cells to induce gut-homing regulatory T cells and treat gut inflammation” (LOMA LINDA UNIVERSITY, priority 2015, dated 2025)
